# Reference: patent publication US9561259B2, “Cyclosporin analogs” (priority 2010, dated 2017)
# What was measured:
# [1] = system: Spleen cells from C57BL/6 (responder) and BALB/c (stimulator); experiment: Mixed Lymphocyte Reaction (MLR) assay; assay type: cell-based, mice; conditions: five days, 3H-thymidine incorporation
# Procedure: The MLR assay is another means of estimating the immunosuppressive potential of test compounds. Female C57BL/6 and BALB/c mice, 6-8 weeks of age, were obtained from the Frederick Cancer Research and Development Center of the National Cancer Institute (Frederick, Md.). Spleens were harvested aseptically from all mice and single cell suspensions were prepared by disaggregating the cells with frosted glass slides, allowing the debris to settle, and washing the cells twice with complete medium. Complete medium consisted of RPMI 1640 medium containing 25 mM HEPES buffer (HyClone, Logan, Utah) supplemented with 10% heat-inactivated fetal bovine serum (FBS; Atlanta Biologicals, Lawrenceville, Ga.), 100 μg/mL streptomycin, 100 U/mL penicillin G, 0.25 μg/mL amphotericin B (HyClone), 2 mM L-glutamine dipeptide (HyClone), and 2×10^−5 M 2-mercaptoethanol (Sigma). Cells were washed twice and resuspended in complete medium. Cell counts were performed using a Beckman Coulter Z-1 particle counter (Fullerton, Calif.). Cell viability was determined by propidium iodide (PI) staining using an Accuri C6 flow cytometer (Ann Arbor, Mich.).
# Spleen cells from C57BL/6 (H-2^b) and BALB/c (H-2^d) were used as responder (R) and stimulator (S) cells, respectively. Cells were plated in triplicate in 96-well flat microtiter plates (Costar, Cambridge, Mass.) such that each well contained 2×10^5 R and 8×10^5 S cells. Cultures were incubated in the absence or presence of various concentrations of Cs A, test compounds, or medium at 37° C. in humidified 5% CO2 for five days, pulsed with ^3H-thymidine (^3H-TdR) for the final 16 hours of incubation, and harvested using a Brandel 96-well cell harvester (Gaithersburg, Md.). Proliferation was measured by counting the radioactivity on filter mats in a Wallac 1450 Microbeta TriLux scintillation counter (Turku, Finland). […] These control cultures were incubated for 3 days under the same conditions as those described for the MLR; lymphoproliferation was determined in the same manner as described above.
# [2] = Epimerization in MeOH at 50° C. (500 MHz NMR)
# From the text: The proton attached to the sarcosine center (adjacent to the sulfur atom) appears at ˜δ 5.9 in the R-isomer whilst in the S-isomer it moves downfield to ˜δ6.5.
Substance,IC50 [1] [µM],Epimerization (%) ([2]; time 0 days),Epimerization (%) ([2]; time 35 days),Epimerization (%) ([2]; time 6 days),Epimerization (%) ([2]; time 30 days)
[(R)-(3-ethylisopropylamino-propylthio)-Sar]^3 Cyclosporin A [Example 2],2.8,0,0,–,–
[(R)-(3-morpholin-4-yl-propylthio)-Sar]^3 Cyclosporin A [Example 1],3,0,–,0,0.2
[(R)-(3-(4-methyl-piperazin-1-yl)-propylthio)-Sar]^3 Cyclosporin A [Example 3],3.3,0,–,–,2
